Measurements taken from patent US9457033B2, “Steroid alkaloids and uses thereof as antimicrobial agents against electron transport-deficient microbes and as potentiators for antimicrobial agents against pathogenic bacteria” (priority 2011, dated 2016).
≈ marks a conversion by molar mass, not a printed value. Read-outs that look alike come from different tables or passages of the source.

Assays:
S. aureus ATCC BAA-41 = test: MIC, microdilution in CAMHB 24 h; type: cell-based, Staphylococcus aureus; details: for MIC: Staphylococcus aureus
S. aureus MA078038 = test: MIC, microdilution in CAMHB 24 h; type: cell-based, Staphylococcus aureus; details: for MIC: Staphylococcus aureus
S. aureus Mu50 = test: MIC, microdilution in CAMHB 24 h; type: cell-based, Staphylococcus aureus; details: for MIC: Staphylococcus aureus
S. aureus Sa228c = test: MIC, microdilution in CAMHB 24 h; type: cell-based, Staphylococcus aureus; details: for Fold (−TO/+TO): Sa228c, 8 μg/ml of tomatidine; for MIC: Staphylococcus aureus
S. aureus CF2A-L = test: MIC, microdilution in CAMHB 24 h; type: cell-based; details: CF2A-L; for MIC: Staphylococcus aureus, CF2AL
[1] = tested on: all tested S. aureus strains; test: Average potentiation of aminoglycoside MIC by tomatidine (FIGS. 6, 7); type: cell-based, Staphylococcus aureus; details: tomatidine at 8 μg/ml
[2] = tested on: S. epidermidis ATCC 12228; test: MIC, microdilution, with or without tomatidine; details: for MIC: Staphylococcus epidermidis
[3] = tested on: S. epidermidis ATCC 35984; test: MIC, microdilution, with or without tomatidine; details: for MIC: Staphylococcus epidermidis
S. haemolyticus sh022 = test: MIC, microdilution, with or without tomatidine; details: for MIC: Staphylococcus haemolyticus
S. haemolyticus sh032 = test: MIC, microdilution, with or without tomatidine; details: for MIC: Staphylococcus haemolyticus
S. hominis ssp008c = test: MIC, microdilution, with or without tomatidine; details: for MIC: Staphylococcus hominis, SSP008C
S. hominis sho23 = test: MIC, microdilution, with or without tomatidine; details: for MIC: Staphylococcus hominis
[4] = ATCC BAA-41, 8 μg/ml of tomatidine
[5] = ATCC BAA-41 / MRSA, ATCC BAA-41, Human (HA), MRSA, read-out: MIC
[6] = ATCCBAA41, ATCC BAA-41, ant(4′)-Ia, 8 μg/ml of tomatidine, read-out: MIC +TO
[7] = ATCCBAA41, ATCC BAA-41, ant(4′)-Ia, absence of tomatidine, read-out: MIC −TO
[8] = MA078038, 8 μg/ml of tomatidine
[9] = MA078038, aph(3′)-IIIa, 8 μg/ml of tomatidine, read-out: MIC +TO
[10] = MA078038, aph(3′)-IIIa, absence of tomatidine, read-out: MIC −TO
[11] = MA078038, Human (CA), MRSA, read-out: MIC
[12] = Mu50, aac(6′)-aph(2″), ant(4′)-Ia, 8 μg/ml of tomatidine, read-out: MIC +TO
[13] = Mu50, aac(6′)-aph(2″), ant(4′)-Ia, absence of tomatidine, read-out: MIC −TO
[14] = Mu50, Human (SSTI), MRSA, VISA, read-out: MIC
[15] = 8 μg/ml of tomatidine, read-out: MIC +TO
[16] = Human (CF lungs), read-out: MIC
[17] = absence of tomatidine, read-out: MIC −TO

Row | SMILES | Fold (−TO/+TO) (S. aureus ATCC BAA-41; [4]) | MIC (S. aureus ATCC BAA-41; [5]) | MIC (S. aureus ATCC BAA-41; [6]) | MIC (S. aureus ATCC BAA-41; [7]) | Fold (−TO/+TO) (S. aureus MA078038; [8]) | MIC (S. aureus MA078038; [9]) | MIC (S. aureus MA078038; [10]) | MIC (S. aureus MA078038; [11]) | Fold (−TO/+TO) (S. aureus Mu50; Mu50, 8 μg/ml of tomatidine) | MIC (S. aureus Mu50; [12]) | MIC (S. aureus Mu50; [13]) | MIC (S. aureus Mu50; [14]) | Fold (−TO/+TO) (S. aureus Sa228c) | MIC (S. aureus Sa228c; SA228C, read-out: MIC +TO) | MIC (S. aureus Sa228c; SA228C, read-out: MIC −TO) | Fold (−TO/+TO) (S. aureus CF2A-L; 8 μg/ml of tomatidine) | MIC (S. aureus CF2A-L; [15]) | MIC (S. aureus CF2A-L; [16]) | MIC (S. aureus CF2A-L; [17]) | other results
1 | NC[C@H]1O[C@H](O[C@H]2[C@H](O)[C@@H](O[C@H]3O[C@H](CO)[C@@H](O)[C@H](N)[C@H]3O)[C@H](N)C[C@@H]2N)[C@H](O)[C@@H](O)[C@@H]1O [Kanamycin, kanamycin] | 4-8 fold | 256 to 512 µg/mL (≈ 528 to 1060 µM) | 64 µg/mL (≈ 132 µM) | 256 to 512 µg/mL (≈ 528 to 1060 µM) | >1 fold | 1020 µg/mL (≈ 2110 µM) | > 1020 µg/mL | > 1020 µg/mL | >2-4 fold | 256 to 512 µg/mL (≈ 528 to 1060 µM) | > 1020 µg/mL | > 1020 µg/mL | 2-8 fold | 128 to 256 µg/mL (≈ 264 to 528 µM) | 512 to 1020 µg/mL (≈ 1060 to 2110 µM) | 8 fold | 0.5 µg/mL (≈ 1.03 µM) | 4 µg/mL (≈ 8.26 µM) | 4 µg/mL (≈ 8.26 µM) | MIC (S. aureus Sa228c; MRSA): 512 to 1020 µg/mL (≈ 1060 to 2110 µM)
2 | NC[C@H]1O[C@H](O[C@H]2[C@H](O)[C@@H](O[C@H]3O[C@H](CO)[C@@H](O)[C@H](N)[C@H]3O)[C@H](N)C[C@@H]2N)[C@H](N)C[C@@H]1O [Tobramycin, tobramycin] | 4 fold | 512 µg/mL (≈ 1100 µM) | 128 µg/mL (≈ 274 µM) | 512 µg/mL (≈ 1100 µM) | 4-8 fold | 0.06 to 0.12 µg/mL (≈ 0.128 to 0.257 µM) | 0.5 µg/mL (≈ 1.07 µM) | 0.5 µg/mL (≈ 1.07 µM) | 8 fold | 128 µg/mL (≈ 274 µM) | 1020 µg/mL (≈ 2190 µM) | 1020 µg/mL (≈ 2190 µM) | 4-8 fold | 128 to 256 µg/mL (≈ 274 to 548 µM) | 1020 µg/mL (≈ 2190 µM) | 8-16 fold | 0.06 to 0.12 µg/mL (≈ 0.128 to 0.257 µM) | 1 µg/mL (≈ 2.14 µM) | 1 µg/mL (≈ 2.14 µM) | average increase of antibacterial activity [1]: 8±3 fold; Fold (−TO/+TO) ([2]; S. epidermidis ATCC 12228, 8 μg/ml of tomatidine): 2 fold; MIC ([2]; ATCC12228, read-out: MIC +TO): 0.06 µg/mL (≈ 0.128 µM); MIC ([2]; ATCC12228, read-out: MIC −TO): 0.12 µg/mL (≈ 0.257 µM); Fold (−TO/+TO) ([3]; S. epidermidis ATCC 35984, 8 μg/ml of tomatidine): 8 fold; MIC ([3]; ATCC35984, read-out: MIC +TO): 2 µg/mL (≈ 4.28 µM); MIC ([3]; ATCC35984, read-out: MIC −TO): 16 µg/mL (≈ 34.2 µM); Fold (−TO/+TO) (S. haemolyticus sh022; S. haemolyticus sh022, 8 μg/ml of tomatidine): 8 fold; MIC (S. haemolyticus sh022; SH022, read-out: MIC +TO): 4 µg/mL (≈ 8.56 µM); MIC (S. haemolyticus sh022; SH022, read-out: MIC −TO): 32 µg/mL (≈ 68.4 µM); Fold (−TO/+TO) (S. haemolyticus sh032; S. haemolyticus sh032, 8 μg/ml of tomatidine): 16 fold; MIC (S. haemolyticus sh032; SH032, read-out: MIC +TO): 2 µg/mL (≈ 4.28 µM); MIC (S. haemolyticus sh032; SH032, read-out: MIC −TO): 32 µg/mL (≈ 68.4 µM); Fold (−TO/+TO) (S. hominis ssp008c; S. hominis ssp008c, 8 μg/ml of tomatidine): 4 fold; MIC (S. hominis ssp008c; read-out: MIC +TO): 8 µg/mL (≈ 17.1 µM); MIC (S. hominis ssp008c; read-out: MIC −TO): 32 µg/mL (≈ 68.4 µM); Fold (−TO/+TO) (S. hominis sho23; S. hominis sho23, 8 μg/ml of tomatidine): 4 fold; MIC (S. hominis sho23; SHO23, read-out: MIC +TO): 1 µg/mL (≈ 2.14 µM); MIC (S. hominis sho23; SHO23, read-out: MIC −TO): 4 µg/mL (≈ 8.56 µM)
